# Laboratory results: the OligoGym collection
# Oligonucleotides are written 5' to 3', each unit as a sugar letter and its base; * is a phosphorothioate linkage, no mark a phosphodiester; rarer units and linkages stand in square brackets, end groups in braces. Plain capitals give the bases only. d = 2'-deoxy (DNA); r = 2'-OH (RNA)
# Molecular target: UBE2L3
# Assay: reporter assay of Huesken 2005
# Conditions: siRNA
# Note: test concentration or dose not given here.
row,Substance,normalised inhibition (eCFP-eYFP dual reporter)
1,sense rArArCrUrGrGrArArGrCrCrArGrCrArArCrCrAdTdT / antisense rUrGrGrUrUrGrCrUrGrGrCrUrUrCrCrArGrUrUdTdT,71.8%
2,sense rUrArUrUrGrArCrUrUrGrGrCrArArGrGrGrCrUdTdT / antisense rArGrCrCrCrUrUrGrCrCrArArGrUrCrArArUrAdAdA,75.3%
3,sense rArArArCrArArArGrArUrCrUrArUrCrArCrCrCdTdT / antisense rGrGrGrUrGrArUrArGrArUrCrUrUrUrGrUrUrUdTdA,50.1%
4,sense rUrCrArUrArGrCrArCrUrGrGrUrGrArArUrGrAdTdT / antisense rUrCrArUrUrCrArCrCrArGrUrGrCrUrArUrGrAdGdG,77.5%
5,sense rCrArGrCrArGrArGrUrArCrCrCrArUrUrCrArAdTdT / antisense rUrUrGrArArUrGrGrGrUrArCrUrCrUrGrCrUrGdGdA,90%
6,sense rCrCrArArArArCrCrGrArCrCrArArGrUrArArUdTdT / antisense rArUrUrArCrUrUrGrGrUrCrGrGrUrUrUrUrGrGdTdT,84.6%
7,sense rUrUrCrArArArCrCrArCrCrGrArArGrArUrCrAdTdT / antisense rUrGrArUrCrUrUrCrGrGrUrGrGrUrUrUrGrArAdTdG,65.9%
8,sense rCrArGrCrArArCrCrArArArArCrCrGrArCrCrAdTdT / antisense rUrGrGrUrCrGrGrUrUrUrUrGrGrUrUrGrCrUrGdGdC,60%
9,sense rGrArCrCrUrArGrCrUrGrArArGrArArUrArCrUdTdT / antisense rArGrUrArUrUrCrUrUrCrArGrCrUrArGrGrUrCdAdG,102%
10,sense rGrGrCrArArGrGrGrCrUrUrArUrUrGrUrUrCrCdTdT / antisense rGrGrArArCrArArUrArArGrCrCrCrUrUrGrCrCdAdA,79.4%
11,sense rArCrCrArArGrUrArArUrCrCrArGrUrCrCrCrUdTdT / antisense rArGrGrGrArCrUrGrGrArUrUrArCrUrUrGrGrUdCdG,87.3%
12,sense rArArCrCrGrArCrCrArArGrUrArArUrCrCrArGdTdT / antisense rCrUrGrGrArUrUrArCrUrUrGrGrUrCrGrGrUrUdTdT,66.6%
13,sense rGrCrArGrGrUrCrUrGrUrCrUrGrCrCrArGrUrAdTdT / antisense rUrArCrUrGrGrCrArGrArCrArGrArCrCrUrGrCdCdC,52.7%
14,sense rCrCrUrArGrCrUrGrArArGrArArUrArCrUrCrUdTdT / antisense rArGrArGrUrArUrUrCrUrUrCrArGrCrUrArGrGdTdC,63.9%
15,sense rUrUrCrGrGrGrCrUrGrArCrCrUrArGrCrUrGrAdTdT / antisense rUrCrArGrCrUrArGrGrUrCrArGrCrCrCrGrArAdGdC,49%
16,sense rCrUrGrUrCrUrGrCrCrArGrUrArArUrUrArGrUdTdT / antisense rArCrUrArArUrUrArCrUrGrGrCrArGrArCrArGdAdC,52.5%
17,sense rCrArGrGrUrUrGrArUrGrArArGrCrUrArArUrUdTdT / antisense rArArUrUrArGrCrUrUrCrArUrCrArArCrCrUrGdGdA,96.7%
